Reference: EP0914370B1, “PROCESS FOR PRODUCING CLOSED CELL THERMOPLASTIC FOAMS CONTAINING HFC-134” (E.I. DU PONT DE NEMOURS AND COMPANY, priority 1996, dated 1998)
Marks after values point to notes of the source that are not given here.

Assays:
[1] = Solubility and solution pressure of blowing agents in Quantum "Petrothene" grade low density polyethylene, same procedure; format: physicochemical
[2] = Solubility and solution pressure of blowing agents in polystyrene resin, calculated with the Flory-Huggins equation; format: physicochemical; conditions: for WT% Blowing Agent Dissolves in Resin: atmospheric pressure (14.7 psia, 1 bar)
Text: Certain aspects of the invention are illustrated by the Figures. The accompanying figures illustrate the suitability of HFC-134 as blowing agent for producing polystyrenic foam bodies, the data presented therein were obtained with the aid of the well-known Flory-Huggins equation (Flory, P.J.: "Principles of Polymer Chemistry"; Cornell University Press, Ithaca, N.Y.), discussed below.
These equilibrium pressures relate to the point in the extrusion process where blowing agent is mixed with resin; foaming cannot occur at these pressures.
The data presented in Figures 3-6 were determined through use of the Flory-Huggins equation for phase equilibria in polymer solutions. This equation uses values for the following parameters [(1) - (4)], which were obtained as follows: (1) liquid densities of the blowing agents, g/cc, were derived by using standard methods, drawing a straight line through the liquid density data (based on National Institute of Standards and Technology, NIST, experimental data; with equations based on the Modified Benedict-Webb-Rubin, MBWR, equation of state) from -50°C to 50°C and calculating the liquid density as a function of temperature. The density (d) equation recites: d=AT+B, wherein A is the slope of the line, B is the constant of the line, and T temperature (°C). The liquid densities are (grams/cubic centimeter, g/cm^3):
(2) The densities of the superheated vapors of the blowing agents, which are tabulated below, were calculated from the known vapor data of their thermodynamic properties (based on National Institute of Standards and Technology, NIST, experimental data; with equations based on the Modified Benedict-Webb-Rubin, MBWR, equation of state).
(3) The activity coefficients for the blowing agents that are tabulated below:
These coefficients were determined by dividing the experimental blowing agent partial pressure by the saturated vapor pressure at that temperature. (4) The interaction parameters, X1, were determined at four temperatures, and are presented graphically as a function of temperature in Figure 2 by means of the following equation and equation constants: X1 = A/T + B [formula] (where T = °K = °C + 273.2)
Such data are presented graphically in Figures 3, 4, 5 and 6. Figures 3-6 are plots of "weight% Blowing Agent Dissolved in Resin vs. Pressure of Solution" as a function of temperature. Representative solubilities of the blowing agents in the given resin at various extrusion process temperatures at atmospheric pressure (14.7 psia, 1 bar), are listed below in Table 1: Table 1

[3] = low density polyethylene, 25°C, 1 Atm
[4] = low density polyethylene, 180°C, 1 Atm
[5] = low density polyethylene, Extruder Temp 180°C
[6] = polystyrene resin, 25°C (footnote *)

SMILES | Solubility (wt % HFC) at 1 Atm of HFC Pres. 25°C [1, 3] [wt % HFC] | Solubility (wt % HFC) at 1 Atm of HFC Pres. Ext Temp [1, 4] [wt % HFC] | Limiting Solubility (wt % HFC) [1, 5] [wt % HFC] | Limiting Solubility (wt % HFC) [2] [wt % HFC] | Solubility (wt % HFC) at 1 Atm of HFC Pres. 25°C [2] [wt % HFC] | Solubility (wt % HFC) at 1 Atm of HFC Pres. Ext Temp [2] [wt % HFC] | WT% Blowing Agent Dissolves in Resin ([2]; polystyrene resin, 60°C) [WT%] | WT% Blowing Agent Dissolves in Resin ([2]; polystyrene resin, 100°C) [WT%] | WT% Blowing Agent Dissolves in Resin ([2]; polystyrene resin, 140°C) [WT%] | WT% Blowing Agent Dissolves in Resin ([2]; polystyrene resin, 180°C) [WT%] | WT% Blowing Agent Dissolves in Resin ([2]; polystyrene resin, 200°C) [WT%] | Solubility (wt % HFC) at 1 Atm of HFC Pres. 25°C ([2]; polystyrene resin, 25°C, 1 Atm) [wt % HFC] | Solubility (wt % HFC) at 1 Atm of HFC Pres. Ext Temp ([2]; polystyrene resin, 180°C, 1 Atm) [wt % HFC] | Limiting Solubility (wt % HFC) ([2]; polystyrene resin, Extruder Temp 180°C) | WT% Blowing Agent Dissolves in Resin ([2]; polystyrene resin, 20°C) [WT%] | HFC-134/HFC-134a solubility ratio [2] | WT% Blowing Agent Dissolves in Resin [2, 6] | Limiting Solubility (wt % HFC) [1] [wt % HFC] | Solubility (wt % HFC) at 1 Atm of HFC Pres. 25°C [1] [wt % HFC] | Solubility (wt % HFC) at 1 Atm of HFC Pres. Ext Temp [1] [wt % HFC]
FC(F)(Cl)C(F)(F)Cl [HCFC-114, 1,2-dichloro-1,1,2,2-tetrafluoroethane] | 2.01 | 0.38 | 78 |  |  |  |  |  |  |  |  |  |  |  |  |  |  |  |  | 
FC(F)C(F)F [HFC-134, 1,1,2,2-tetrafluoroethane] |  |  |  | 81 | 0.54 | 0.2 | 0.5 | 0.4 | 0.3 | 0.2 | 0.15 |  |  |  |  | about 2/1 | 0.6* WT% | 81 | 0.64 | 0.20
FCC(F)(F)F [HFC-134a, 1,1,1,2-tetrafluoroethane] | 0.22 | 0.14 | 74 |  |  |  | 0.2 | 0.19 | 0.15 | 0.1 | 0.08 | 0.16 | 0.11 | 69 |  |  | 0.16* WT% |  |  | 
CCF [HFC-161, 1-fluoroethane] | 0.22 | 0.24 | 89 |  |  |  |  |  |  |  |  |  |  |  |  |  |  |  |  | 

More lines, main results first:

Solubility (wt % HFC) at 1 Atm of HFC Pres. 25°C [1, 3] [wt % HFC] | Solubility (wt % HFC) at 1 Atm of HFC Pres. Ext Temp [1, 4] [wt % HFC] | Limiting Solubility (wt % HFC) [1, 5] [wt % HFC] | Limiting Solubility (wt % HFC) [2] [wt % HFC] | Solubility (wt % HFC) at 1 Atm of HFC Pres. 25°C [2] [wt % HFC] | Solubility (wt % HFC) at 1 Atm of HFC Pres. Ext Temp [2] [wt % HFC] | WT% Blowing Agent Dissolves in Resin ([2]; polystyrene resin, 60°C) [WT%] | WT% Blowing Agent Dissolves in Resin ([2]; polystyrene resin, 100°C) [WT%] | WT% Blowing Agent Dissolves in Resin ([2]; polystyrene resin, 140°C) [WT%] | WT% Blowing Agent Dissolves in Resin ([2]; polystyrene resin, 180°C) [WT%] | WT% Blowing Agent Dissolves in Resin ([2]; polystyrene resin, 200°C) [WT%] | Solubility (wt % HFC) at 1 Atm of HFC Pres. 25°C ([2]; polystyrene resin, 25°C, 1 Atm) [wt % HFC] | Solubility (wt % HFC) at 1 Atm of HFC Pres. Ext Temp ([2]; polystyrene resin, 180°C, 1 Atm) [wt % HFC] | Limiting Solubility (wt % HFC) ([2]; polystyrene resin, Extruder Temp 180°C) | WT% Blowing Agent Dissolves in Resin ([2]; polystyrene resin, 20°C) [WT%] | SMILES | HFC-134/HFC-134a solubility ratio [2] | WT% Blowing Agent Dissolves in Resin [2, 6] | Limiting Solubility (wt % HFC) [1] [wt % HFC] | Solubility (wt % HFC) at 1 Atm of HFC Pres. 25°C [1] [wt % HFC] | Solubility (wt % HFC) at 1 Atm of HFC Pres. Ext Temp [1] [wt % HFC]
 |  |  | 69 | 0.04 | 0.07 | 0.08 | 0.13 | 0.1 | 0.07 | 0.05 |  |  |  | 0.04 | CC(F)(F)F [HFC-143a, 1,1,1-trifluoroethane] |  |  |  |  | 
 |  |  | 83 | 0.76 | 0.2 | 0.5 | 0.4 | 0.3 | 0.2 | 0.15 |  |  |  | 0.8 | CC(F)F [HFC-152a, 1,1-difluoroethane] |  |  |  |  | 
